Laboratory results as given in patent US11459315B2, “Modulators of methyl modifying enzymes, compositions and uses thereof” (Constellation Pharmaceuticals, Inc., priority 2017, dated 2022).
Like-named read-outs stand apart in the source and are kept apart here.

Experiments:
[1] = system: H3K27me3 mark in HeLa cells (EZH2); assay: H3K27me3 Alpha Hela Assay (AlphaLISA); format: cell-based; details: HeLa cell assay, Table 3 classes, read-out: EC50 Cellular Activity
In short: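 HeLa cells (1,000/well) treated with ten 3-fold compound doses for 72 h at 37 °C; lysates extracted and H3K27me3 detected by AlphaLISA with anti-K27me3 acceptor beads, biotinylated anti-H3 (3 nM) and streptavidin donor beads. EC50 from DMSO-normalized dose-response curves; duplicate plate assessed viability.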

PRC2 containing wt EZH2 = PRC2 containing wt EZH2 (Homo sapiens (Human), UniProt Q15910); assay: EZH2 residence time assay (100-fold dilution of pre-formed enzyme-inhibitor complex); format: biochemical
PRC2 containing wt EZH2, sequence (Q15910 whole entry): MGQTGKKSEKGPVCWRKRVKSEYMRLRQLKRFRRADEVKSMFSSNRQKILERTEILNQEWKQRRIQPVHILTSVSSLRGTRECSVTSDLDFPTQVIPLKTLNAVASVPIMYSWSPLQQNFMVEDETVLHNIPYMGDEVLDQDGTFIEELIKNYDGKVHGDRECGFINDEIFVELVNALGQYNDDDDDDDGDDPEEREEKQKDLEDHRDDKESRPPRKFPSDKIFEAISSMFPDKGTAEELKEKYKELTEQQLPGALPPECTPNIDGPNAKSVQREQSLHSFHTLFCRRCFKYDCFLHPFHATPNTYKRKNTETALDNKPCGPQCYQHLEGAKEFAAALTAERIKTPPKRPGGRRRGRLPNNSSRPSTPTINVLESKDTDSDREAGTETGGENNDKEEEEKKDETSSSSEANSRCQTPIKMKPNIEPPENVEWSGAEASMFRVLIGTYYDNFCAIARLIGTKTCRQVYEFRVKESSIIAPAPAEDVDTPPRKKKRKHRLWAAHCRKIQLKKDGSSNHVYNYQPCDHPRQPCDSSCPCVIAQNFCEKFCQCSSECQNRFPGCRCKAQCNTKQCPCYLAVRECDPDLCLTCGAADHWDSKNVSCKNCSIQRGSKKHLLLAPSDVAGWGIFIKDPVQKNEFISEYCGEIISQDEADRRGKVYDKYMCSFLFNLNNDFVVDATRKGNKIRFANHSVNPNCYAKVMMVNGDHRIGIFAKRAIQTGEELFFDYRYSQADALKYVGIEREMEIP
PRC2 containing wt EZH2, sequence (O75530 whole entry partner): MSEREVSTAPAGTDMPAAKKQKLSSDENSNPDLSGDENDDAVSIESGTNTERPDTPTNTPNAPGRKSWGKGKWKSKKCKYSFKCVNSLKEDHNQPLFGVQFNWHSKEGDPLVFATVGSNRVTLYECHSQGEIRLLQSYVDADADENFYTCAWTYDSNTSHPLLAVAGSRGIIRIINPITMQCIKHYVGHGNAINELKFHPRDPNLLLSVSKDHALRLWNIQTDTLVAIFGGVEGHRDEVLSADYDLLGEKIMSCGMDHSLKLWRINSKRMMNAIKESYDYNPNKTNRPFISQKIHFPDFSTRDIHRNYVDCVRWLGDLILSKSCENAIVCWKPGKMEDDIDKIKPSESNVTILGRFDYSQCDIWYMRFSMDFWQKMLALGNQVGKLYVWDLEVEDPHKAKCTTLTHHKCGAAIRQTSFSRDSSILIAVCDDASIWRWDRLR
PRC2 containing wt EZH2, sequence (Q15022 whole entry partner): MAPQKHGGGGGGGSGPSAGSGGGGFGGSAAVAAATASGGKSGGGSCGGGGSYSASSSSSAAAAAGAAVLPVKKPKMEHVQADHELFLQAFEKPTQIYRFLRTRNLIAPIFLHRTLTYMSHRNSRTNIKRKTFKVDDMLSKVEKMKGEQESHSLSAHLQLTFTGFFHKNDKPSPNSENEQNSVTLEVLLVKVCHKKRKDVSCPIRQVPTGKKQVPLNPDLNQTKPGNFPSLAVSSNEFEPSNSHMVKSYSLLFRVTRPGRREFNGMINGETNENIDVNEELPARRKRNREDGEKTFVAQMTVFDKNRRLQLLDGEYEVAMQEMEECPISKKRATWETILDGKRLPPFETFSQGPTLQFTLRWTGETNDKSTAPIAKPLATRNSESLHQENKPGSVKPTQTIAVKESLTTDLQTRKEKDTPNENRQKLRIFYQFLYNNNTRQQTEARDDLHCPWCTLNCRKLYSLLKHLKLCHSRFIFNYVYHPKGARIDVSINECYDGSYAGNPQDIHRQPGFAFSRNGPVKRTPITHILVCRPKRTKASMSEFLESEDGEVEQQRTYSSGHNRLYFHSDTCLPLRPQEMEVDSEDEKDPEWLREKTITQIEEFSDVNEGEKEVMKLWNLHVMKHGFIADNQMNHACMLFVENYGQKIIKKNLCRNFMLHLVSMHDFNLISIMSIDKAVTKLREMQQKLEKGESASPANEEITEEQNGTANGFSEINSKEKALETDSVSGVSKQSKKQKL
PRC2 containing wt EZH2, sequence (Q09028 whole entry partner): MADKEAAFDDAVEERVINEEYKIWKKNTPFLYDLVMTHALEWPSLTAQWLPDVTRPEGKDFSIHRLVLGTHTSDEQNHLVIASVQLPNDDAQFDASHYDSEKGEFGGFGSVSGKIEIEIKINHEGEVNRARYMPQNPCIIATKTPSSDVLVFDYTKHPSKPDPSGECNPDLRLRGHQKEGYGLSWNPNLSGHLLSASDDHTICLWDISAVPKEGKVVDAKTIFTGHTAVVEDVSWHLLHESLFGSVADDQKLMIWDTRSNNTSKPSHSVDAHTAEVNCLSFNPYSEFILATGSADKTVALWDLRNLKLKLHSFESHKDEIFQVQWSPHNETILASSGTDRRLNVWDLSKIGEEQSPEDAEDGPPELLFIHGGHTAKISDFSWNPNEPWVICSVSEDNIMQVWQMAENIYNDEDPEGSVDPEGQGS
PRC2 containing wt EZH2, sequence (Q6ZN18 whole entry partner): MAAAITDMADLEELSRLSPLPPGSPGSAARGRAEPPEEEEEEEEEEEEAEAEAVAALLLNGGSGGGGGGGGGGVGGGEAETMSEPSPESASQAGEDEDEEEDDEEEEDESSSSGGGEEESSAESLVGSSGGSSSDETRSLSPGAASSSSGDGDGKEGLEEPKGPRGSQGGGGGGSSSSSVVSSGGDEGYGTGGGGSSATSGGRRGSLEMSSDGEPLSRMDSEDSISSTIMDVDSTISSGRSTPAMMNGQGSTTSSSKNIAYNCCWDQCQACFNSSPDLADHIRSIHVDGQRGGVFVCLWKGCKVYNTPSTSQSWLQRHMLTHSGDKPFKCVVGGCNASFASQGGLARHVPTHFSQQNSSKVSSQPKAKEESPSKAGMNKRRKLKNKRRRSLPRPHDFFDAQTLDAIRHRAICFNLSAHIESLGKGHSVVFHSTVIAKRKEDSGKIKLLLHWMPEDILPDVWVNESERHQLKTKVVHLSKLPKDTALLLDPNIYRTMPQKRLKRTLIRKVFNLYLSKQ
Description: EZH2 residence time assay: Compound residence times were assessed by monitoring the recovery of enzyme activity following a 100-fold dilution of pre-formed enzyme-inhibitor complex (dilution reaction), and comparing it to the activity of an undiluted control with the same final concentrations of all reagents (control reaction). Enzyme activity was measured by incorporation of ^3H-SAM into a biotinylated H3 peptide. […] For the control reaction, 0.202 nM PRC2 was pre-incubated with 1 μM activating peptide, 1.01 μM SAM, 1.01 μM ^3H-SAM, and compound at 6.06 times its Ki for 2 h in 138.6 μL of buffer, then the reaction was initiated by the addition of 1.4 μL 500 μM substrate peptide in water. Reactions were quenched at various time points spanning up to 10 hours, by transferring 8 μL aliquots from the reaction vessel to a plate containing 8 μL per well of STOP solution (50 mM Tris pH 8.5, 200 mM EDTA, 2 mM SAH). After the last time point, 12 μL of the quenched solutions were transferred to a streptavidin coated FlashPlate (PerkinElmer) containing 40 μL per well of STOP solution, incubated 1-8 h, washed, and read in a TopCount plate reader (PerkinElmer). A custom script was used to fit control reaction progress data to a straight line and dilution reaction progress data:
Where y is the product formed, t is the reaction time, vi is the initial velocity, vs is the steady state velocity, and kobs is the rate constant for the transition from the initial velocity phase of the curve to the steady state velocity phase of the curve. In fitting the dilution reaction progress data, vs was constrained to the slope of the line fitted to the control reaction progress data. The fitted value of kobs was then transformed into residence time:
Where τ is residence time, Ki is the inhibition constant, [EI] is the calculated equilibrium concentration of enzyme-inhibitor complex, [E] is the calculated equilibrium concentration of free enzyme, and [I] is the calculated equilibrium concentration of free inhibitor.

Q: Which results are given for `Cc1cc(Cl)c(CNC(=O)c2c(C)n([C@H](C)C3CCC(NC4(C)COC4)CC3)c3ccccc23)c(=O)[nH]1` (single isomer, unassigned) [drawing 202]?
A: EC50 [1]: 5 to 25 nM; residence time (PRC2 containing wt EZH2): B (a t value of greater than 5 hours but less or equal than 35 hours)

Q: How did the EC50 [1] turn out when `Cc1cc(C)c(CNC(=O)c2c(C)n([C@H](C)C3CCC(NC4(C)COC4)CC3)c3ccccc23)c(=O)[nH]1` (single isomer, unassigned) [drawing 203] was run?
A: 25 to 125 nM

Q: And the “residence time” value (PRC2 containing wt EZH2)?
A: D (a t value of less or equal than 0.5 hours)

Q: What does the source list for `Cc1cc(C)c(CNC(=O)c2c(C)n([C@H](C)C3CCC(NC4(C)COC4)CC3)c3ccccc23)c(=O)[nH]1` (single isomer, unassigned) [drawing 204]?
A: EC50 [1]: < 5 nM; residence time (PRC2 containing wt EZH2): B (a t value of greater than 5 hours but less or equal than 35 hours)

Q: What does the source list for `CSc1cc(C)[nH]c(=O)c1CNC(=O)c1c(C)n([C@H](C)C2CCC(NC3(C)COC3)CC2)c2ccccc12` (single isomer, unassigned) [drawing 205]?
A: EC50 ([1]; Homo sapiens, HeLa): < 5 nM; residence time (PRC2 containing wt EZH2): A (value of greater than 35 hours)

Q: How did the EC50 [1] turn out when `CSc1cc(C)[nH]c(=O)c1CNC(=O)c1c(C)n([C@H](C)C2CCC(NC3(C)COC3)CC2)c2ccccc12` (single isomer, unassigned) [drawing 206] was run?
A: 5 to 25 nM

Q: What about the “residence time” value (PRC2 containing wt EZH2) of the same compound?
A: B (a t value of greater than 5 hours but less or equal than 35 hours)

Q: Which results are given for `COc1cc(C)[nH]c(=O)c1CNC(=O)c1c(C)n([C@H](C)C2CCC(NC3COC3)CC2)c2ccccc12` (single isomer, unassigned) [drawing 207]?
A: EC50 [1]: > 125 nM; residence time (PRC2 containing wt EZH2; read-out: Residence Time): < 30 min

Q: `COc1cc(C)[nH]c(=O)c1CNC(=O)c1c(C)n([C@H](C)C2CCC(NC3COC3)CC2)c2ccccc12` (single isomer, unassigned) [drawing 208] was tested. Which EC50 [1] did it give?
A: 25 to 125 nM

Q: What about the “residence time” value (PRC2 containing wt EZH2) of the same compound?
A: C (a t value of greater than 0.5 hours but less or equal than 5 hours)

Q: Which results are given for `Cc1cc(C)c(CNC(=O)c2c(C)n([C@H](C)C3CCC(NC4COC4)CC3)c3ccccc23)c(=O)[nH]1` (single isomer, unassigned) [drawing 209]?
A: EC50 [1]: > 125 nM; residence time (PRC2 containing wt EZH2; read-out: Residence Time): < 30 min

Q: What does the source list for `Cc1cc(C)c(CNC(=O)c2c(C)n([C@H](C)C3CCC(NC4COC4)CC3)c3ccccc23)c(=O)[nH]1` (single isomer, unassigned) [drawing 210]?
A: EC50 [1]: 25 to 125 nM; residence time (PRC2 containing wt EZH2): C (a t value of greater than 0.5 hours but less or equal than 5 hours)

Q: For `Cc1cc(Cl)c(CNC(=O)c2c(C)n([C@H](C)C3CCC(NC4COC4)CC3)c3ccccc23)c(=O)[nH]1` (single isomer, unassigned) [drawing 211], which EC50 [1] is on record?
A: > 125 nM

Q: And the residence time (PRC2 containing wt EZH2; read-out: Residence Time)?
A: < 30 min

Q: Which results are given for `Cc1cc(Cl)c(CNC(=O)c2c(C)n([C@H](C)C3CCC(NC4COC4)CC3)c3ccccc23)c(=O)[nH]1` (single isomer, unassigned) [drawing 212]?
A: EC50 [1]: 25 to 125 nM; residence time (PRC2 containing wt EZH2): C (a t value of greater than 0.5 hours but less or equal than 5 hours)

Q: For `CSc1cc(C)[nH]c(=O)c1CNC(=O)c1c(C)n([C@H](C)C2CCC(NC3COC3)CC2)c2ccccc12` (single isomer, unassigned) [drawing 213], which EC50 [1] is on record?
A: < 5 nM

Q: What about the “residence time” value (PRC2 containing wt EZH2) of the same compound?
A: A (value of greater than 35 hours)

Q: Which results are given for `CSc1cc(C)[nH]c(=O)c1CNC(=O)c1c(C)n([C@H](C)C2CCC(NC3COC3)CC2)c2ccccc12` (single isomer, unassigned) [drawing 214]?
A: EC50 [1]: 25 to 125 nM; residence time (PRC2 containing wt EZH2): C (a t value of greater than 0.5 hours but less or equal than 5 hours)

Q: Which EC50 ([1]; Homo sapiens, HeLa) does the source give for `COc1cc(C)[nH]c(=O)c1CNC(=O)c1c(C)n([C@H](C)C2CCC(N3CC(OC)C3)CC2)c2ccccc12` (single isomer, unassigned) [drawing 217] here?
A: > 125 nM

Q: What about the residence time (PRC2 containing wt EZH2) of the same compound?
A: < 30 min

Q: `COc1cc(C)[nH]c(=O)c1CNC(=O)c1c(C)n([C@H](C)C2CCC(N3CC(OC)C3)CC2)c2ccccc12` (single isomer, unassigned) [drawing 218] was tested. Which EC50 [1] did it give?
A: > 125 nM

Q: What about the “residence time” value (PRC2 containing wt EZH2) of the same compound?
A: C (a t value of greater than 0.5 hours but less or equal than 5 hours)

Q: Which EC50 ([1]; Homo sapiens, HeLa) does the source give for `COC1CN(C2CCC([C@@H](C)n3c(C)c(C(=O)NCc4c(SC)cc(C)[nH]c4=O)c4ccccc43)CC2)C1` (single isomer, unassigned) [drawing 219] here?
A: < 5 nM

Q: What about the “residence time” value (PRC2 containing wt EZH2) of the same compound?
A: A (value of greater than 35 hours)

Q: How did the EC50 [1] turn out when `COC1CN(C2CCC([C@@H](C)n3c(C)c(C(=O)NCc4c(SC)cc(C)[nH]c4=O)c4ccccc43)CC2)C1` (single isomer, unassigned) [drawing 220] was run?
A: 5 to 25 nM

Q: What about the “residence time” value (PRC2 containing wt EZH2) of the same compound?
A: C (a t value of greater than 0.5 hours but less or equal than 5 hours)

Q: Which results are given for `Cc1cc(Cl)c(CNC(=O)c2c(C)n([C@H](C)C3OCC(NC(C)(C)C)CO3)c3ccccc23)c(=O)[nH]1` (single isomer, unassigned) [drawing 221]?
A: EC50 ([1]; Homo sapiens, HeLa): 5 to 25 nM; residence time (PRC2 containing wt EZH2; read-out: Residence Time): 30 to 300 min

Q: What does the source list for `CSc1cc(C)[nH]c(=O)c1CNC(=O)c1c(C)n([C@H](C)C2OCC(NC(C)(C)C)CO2)c2ccccc12` (single isomer, unassigned) [drawing 223]?
A: EC50 [1]: 25 to 125 nM; residence time (PRC2 containing wt EZH2): D (a t value of less or equal than 0.5 hours)

Q: How did the EC50 [1] turn out when `CSc1cc(C)[nH]c(=O)c1CNC(=O)c1c(C)n([C@H](C)C2OCC(NC(C)(C)C)CO2)c2ccccc12` (single isomer, unassigned) [drawing 224] was run?
A: < 5 nM

Q: And the “residence time” value (PRC2 containing wt EZH2)?
A: A (value of greater than 35 hours)

Q: How did the EC50 [1] turn out when `Cc1cc(Cl)c(CNC(=O)c2c(C)n([C@H](C)C3OCC(NC4(C)COC4)CO3)c3ccccc23)c(=O)[nH]1` (single isomer, unassigned) [drawing 225] was run?
A: > 125 nM

Q: What about the “residence time” value (PRC2 containing wt EZH2) of the same compound?
A: D (a t value of less or equal than 0.5 hours)

Q: For `Cc1cc(Cl)c(CNC(=O)c2c(C)n([C@H](C)C3OCC(NC4(C)COC4)CO3)c3ccccc23)c(=O)[nH]1` (single isomer, unassigned) [drawing 226], which EC50 [1] is on record?
A: 5 to 25 nM

Q: What about the “residence time” value (PRC2 containing wt EZH2) of the same compound?
A: B (a t value of greater than 5 hours but less or equal than 35 hours)

Q: With `CSc1cc(C)[nH]c(=O)c1CNC(=O)c1c(C)n([C@H](C)C2OCC(NC3(C)COC3)CO2)c2ccccc12` (single isomer, unassigned) [drawing 227] as the compound, how does the EC50 [1] read?
A: < 5 nM

Q: What about the “residence time” value (PRC2 containing wt EZH2) of the same compound?
A: A (value of greater than 35 hours)

Q: For `CSc1cc(C)[nH]c(=O)c1CNC(=O)c1c(C)n([C@H](C)C2OCC(NC3(C)COC3)CO2)c2ccccc12` (single isomer, unassigned) [drawing 228], which EC50 [1] is on record?
A: > 125 nM

Q: What about the “residence time” value (PRC2 containing wt EZH2) of the same compound?
A: D (a t value of less or equal than 0.5 hours)

Q: What does the source list for `Cc1cc(Cl)c(CNC(=O)c2c(C)n([C@H](C)C3OCC(N(C)C)CO3)c3ccccc23)c(=O)[nH]1` (single isomer, unassigned) [drawing 229]?
A: EC50 [1]: > 125 nM; residence time (PRC2 containing wt EZH2; read-out: Residence Time): < 30 min

Q: With `Cc1cc(Cl)c(CNC(=O)c2c(C)n([C@H](C)C3OCC(N(C)C)CO3)c3ccccc23)c(=O)[nH]1` (single isomer, unassigned) [drawing 230] as the compound, how does the EC50 [1] read?
A: 25 to 125 nM

Q: And the “residence time” value (PRC2 containing wt EZH2)?
A: D (a t value of less or equal than 0.5 hours)

Q: Which EC50 [1] does the source give for `CSc1cc(C)[nH]c(=O)c1CNC(=O)c1c(C)n([C@H](C)C2OCC(N(C)C)CO2)c2ccccc12` (single isomer, unassigned) [drawing 231] here?
A: > 125 nM

Q: What about the “residence time” value (PRC2 containing wt EZH2) of the same compound?
A: D (a t value of less or equal than 0.5 hours)

Q: `CSc1cc(C)[nH]c(=O)c1CNC(=O)c1c(C)n([C@H](C)C2OCC(N(C)C)CO2)c2ccccc12` (single isomer, unassigned) [drawing 232] was tested. Which EC50 [1] did it give?
A: < 5 nM

Q: What about the “residence time” value (PRC2 containing wt EZH2) of the same compound?
A: B (a t value of greater than 5 hours but less or equal than 35 hours)
